Assay results reported in publication PMC12214875 (Molecular Cancer Therapeutics, 2025).

What was measured:
[1] = molecular target: T1, KIT T670I (Homo sapiens, UniProt P10721, T670I/V559D); assay: NanoBRET cellular target engagement in HEK293 cells; format: binding; conditions: 100 nmol/L, 1 hour
T1 construct: host or cells: HEK293
Description: (§1) Binding affinities of test compounds to different KIT-mutant proteins in intact living cells were assessed with NanoBRET assays at Reaction Biology Corp. according to their standard protocols. Briefly, respective KIT-mutant NanoLuc fusion vectors were transiently expressed in HEK293 cells (RRID: CVCL_0045). The cells were pretreated with the respective NanoBRET Tracer and then incubated with test compounds at 1, 10, and 100 nmol/L or DMSO for 1 hour. The NanoBRET NanoGlo substrate was added, and BRET signals were measured on an EnVision 2104 Multilabel Reader [PerkinElmer; 450 nm band pass (donor) and 610 nm long pass (acceptor)]. Dasatinib at a concentration of 10 μmol/L was used as reference for all KIT-mutant forms (except 10 μmol/L CEP-701 was used for KIT^V559D/T670I) and subtracted as background. The target coverage of individual KIT-mutant forms by test compounds was determined by normalizing to the DMSO-treated control.

[2] = molecular target: T2, KIT L576P (Homo sapiens, UniProt P10721, L576P); assay: as above; format: binding; conditions: 1 nmol/L, 1 hour
T2 construct: host or cells: HEK293
T2 sequence (P10721 26-976 L576P): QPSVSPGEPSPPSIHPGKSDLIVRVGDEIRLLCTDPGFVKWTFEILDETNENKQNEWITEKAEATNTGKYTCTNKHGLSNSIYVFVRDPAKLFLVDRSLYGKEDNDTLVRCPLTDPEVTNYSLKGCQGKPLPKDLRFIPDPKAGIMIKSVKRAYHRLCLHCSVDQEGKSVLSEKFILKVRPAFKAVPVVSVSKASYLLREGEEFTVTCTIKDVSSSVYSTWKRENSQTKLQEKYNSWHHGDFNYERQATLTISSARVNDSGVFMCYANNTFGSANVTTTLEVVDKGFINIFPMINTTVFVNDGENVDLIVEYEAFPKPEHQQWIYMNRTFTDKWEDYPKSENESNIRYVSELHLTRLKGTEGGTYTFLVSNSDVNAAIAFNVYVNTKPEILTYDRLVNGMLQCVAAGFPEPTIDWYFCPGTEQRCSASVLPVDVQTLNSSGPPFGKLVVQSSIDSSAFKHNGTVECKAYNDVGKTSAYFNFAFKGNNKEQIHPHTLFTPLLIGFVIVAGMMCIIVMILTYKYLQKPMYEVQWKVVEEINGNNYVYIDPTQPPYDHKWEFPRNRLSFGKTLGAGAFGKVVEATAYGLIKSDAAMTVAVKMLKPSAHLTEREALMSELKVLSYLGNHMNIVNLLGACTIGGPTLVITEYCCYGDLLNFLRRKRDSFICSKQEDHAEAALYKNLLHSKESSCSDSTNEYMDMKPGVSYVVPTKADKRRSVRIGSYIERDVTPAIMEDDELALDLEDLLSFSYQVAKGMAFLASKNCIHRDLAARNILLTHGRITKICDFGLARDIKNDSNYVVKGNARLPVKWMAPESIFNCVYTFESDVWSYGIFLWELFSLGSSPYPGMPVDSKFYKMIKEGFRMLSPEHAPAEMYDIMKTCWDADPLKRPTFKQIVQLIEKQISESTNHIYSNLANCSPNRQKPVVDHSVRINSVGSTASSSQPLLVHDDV
Description: as §1

[3] = Hematology in mice
[4] = 35 mg/kg QD, 2 evaluable animals

T1 sequence (P10721 26-976 V559D/T670I): as the sequence (P10721 26-976 L576P) above, with V534D, P551L, T645I counted along it

Cn1cc(-c2ccc(CNc3cc(-c4cnc5cc(OCCCN6CCCC6)ccn45)ncn3)cc2)cn1 [M4205]
target coverage [1]: at least 50%
target coverage [2]: over 80%
BASO: Basophil count, Mean [3, 4]: 0,5%
EOS: Eosinophil count, Mean [3, 4]: 32,65%
HCT: Hematocrit, Mean [3, 4]: 36,60%
HGB: Hemoglobin concentration, Mean [3, 4]: 11,4 g/dL
LUC: Large Unstained Cells count, Mean [3, 4]: 0,8%
LYM: Lymphocyte count, Mean [3, 4]: 13,7%
MCH, Mean [3, 4]: 17,35 pg
MCHC: Mean Corpuscular Hemoglobin Concentration, Mean [3, 4]: 31,2 g/dL
MCV: Mean Corpuscular Volume, Mean [3, 4]: 55,6 fL
MONO: Monocyte count, Mean [3, 4]: 4,50%
NEU: Neutrophil count, Mean [3, 4]: 47,60%
PLT: Platelet count, Mean [3, 4]: 1703 nL⁻¹
RBC: Red Blood Cell count, Mean [3, 4]: 6,59 /pL
RET: Reticulocyte count, Mean [3, 4]: 2,97%
WBC: White Blood Cell count, Mean [3, 4]: 0,3 /nL
Hematology: Cell Count decrease (summary) ([3]; 35 mg/kg and 75 mg/kg, Red Blood Cell, Hematocrit, Hematoglobin, Leukocytes): Dose-dependent decrease of
BASO: Basophil count, Mean ([3]; 75 mg/kg QD, 5 animals): 1,1%
EOS: Eosinophil count, Mean ([3]; 75 mg/kg QD, 5 animals): 18,8%
HCT: Hematocrit, Mean ([3]; 75 mg/kg QD, 5 animals): 29,0%
HGB: Hemoglobin concentration, Mean ([3]; 75 mg/kg QD, 5 animals): 9,2 g/dL
LUC: Large Unstained Cells count, Mean ([3]; 75 mg/kg QD, 5 animals): 1,3%
LYM: Lymphocyte count, Mean ([3]; 75 mg/kg QD, 5 animals): 18,3%
MCH, Mean ([3]; 75 mg/kg QD, 5 animals): 16,1 pg
MCHC: Mean Corpuscular Hemoglobin Concentration, Mean ([3]; 75 mg/kg QD, 5 animals): 31,9 g/dL
MCV: Mean Corpuscular Volume, Mean ([3]; 75 mg/kg QD, 5 animals): 50,4 fL
MONO: Monocyte count, Mean ([3]; 75 mg/kg QD, 5 animals): 4,0%
NEU: Neutrophil count, Mean ([3]; 75 mg/kg QD, 5 animals): 57,6%
PLT: Platelet count, Mean ([3]; 75 mg/kg QD, 5 animals): 985 nL⁻¹
RBC: Red Blood Cell count, Mean ([3]; 75 mg/kg QD, 5 animals): 5,74 /pL
RET: Reticulocyte count, Mean ([3]; 75 mg/kg QD, 5 animals): 1,49%
WBC: White Blood Cell count, Mean ([3]; 75 mg/kg QD, 5 animals): 0,2 /nL
